test system: Abutilon theophrasti; test: Weeding effect in post-emergence stage; format: in vivo; conditions: Dose 15 g/ha; fresh weight control rate level
In short: (§1)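 Pot-grown greenhouse plants sprayed at 2–3 leaf stage, 2 weeks after sowing, with compound in acetone/Tween 80 plus methyl oleate emulsifiable concentrate (1.5 liter/ha) at 500–7.5 g/ha. Growth control rated 3 weeks after treatment; mean of three replicates.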

Compound	Weeding effect in post-emergence stage, Abutilon theophrasti (level)
COC(=O)[C@@H](C)O/N=C/c1cc(-n2c(=S)cc(C(F)(F)F)n(C)c2=O)c(F)cc1Br [388(R)]	5 (Level 5: growth control rate is above 85%)
COC(=O)[C@@H](C)O/N=C/c1cc(-n2c(=S)cc(C(F)(F)F)n(C)c2=S)c(F)cc1C#N [390(R)]	5 (Level 5: growth control rate is above 85%)

same assay, conditions: Dose 15 g/ha; level of fresh weight growth control rate

Compound	Weeding effect in post-emergence stage, Abutilon theophrasti
CCOC(=O)[C@@H](F)O/N=C/c1cc(-n2c(=O)cc(C(F)(F)F)n(C)c2=O)c(F)cc1Cl [313(R)]	5 (Level 5: growth control rate is above 85%)
CCC[C@@H](O/N=C/c1cc(-n2c(=O)cc(C(F)(F)F)n(C)c2=O)c(F)cc1Cl)C(=O)OC [316(R)]	5 (Level 5: growth control rate is above 85%)
COC(=O)[C@H](O/N=C/c1cc(-n2c(=O)cc(C(F)(F)F)n(C)c2=O)c(F)cc1Cl)C(C)C [318(R)]	5 (Level 5: growth control rate is above 85%)
CCO[C@H](O/N=C/c1cc(-n2c(=O)cc(C(F)(F)F)n(C)c2=O)c(F)cc1Cl)C(=O)OC [331(R)]	5 (Level 5: growth control rate is above 85%)
COC(=O)[C@H](O/N=C/c1cc(-n2c(=O)cc(C(F)(F)F)n(C)c2=O)c(F)cc1Cl)c1ccccc1 [337(R)]	5 (Level 5: growth control rate is above 85%)

test system: Alopecurus japonicus; test: Weeding effect in post-emergence stage; format: in vivo; conditions: Dose 15 g/ha; fresh weight control rate level
In short: as §1

Compound	Weeding effect in post-emergence stage, Alopecurus japonicus (level)
COC(=O)[C@@H](C)O/N=C/c1cc(-n2c(=S)cc(C(F)(F)F)n(C)c2=O)c(F)cc1Br [388(R)]	5 (Level 5: growth control rate is above 85%)
COC(=O)[C@@H](C)O/N=C/c1cc(-n2c(=S)cc(C(F)(F)F)n(C)c2=S)c(F)cc1C#N [390(R)]	5 (Level 5: growth control rate is above 85%)

same assay, conditions: Dose 15 g/ha; level of fresh weight growth control rate

Compound	Weeding effect in post-emergence stage, Alopecurus japonicus
CCOC(=O)[C@@H](F)O/N=C/c1cc(-n2c(=O)cc(C(F)(F)F)n(C)c2=O)c(F)cc1Cl [313(R)]	5 (Level 5: growth control rate is above 85%)
CCC[C@@H](O/N=C/c1cc(-n2c(=O)cc(C(F)(F)F)n(C)c2=O)c(F)cc1Cl)C(=O)OC [316(R)]	5 (Level 5: growth control rate is above 85%)
COC(=O)[C@H](O/N=C/c1cc(-n2c(=O)cc(C(F)(F)F)n(C)c2=O)c(F)cc1Cl)C(C)C [318(R)]	5 (Level 5: growth control rate is above 85%)
CCO[C@H](O/N=C/c1cc(-n2c(=O)cc(C(F)(F)F)n(C)c2=O)c(F)cc1Cl)C(=O)OC [331(R)]	5 (Level 5: growth control rate is above 85%)
COC(=O)[C@H](O/N=C/c1cc(-n2c(=O)cc(C(F)(F)F)n(C)c2=O)c(F)cc1Cl)c1ccccc1 [337(R)]	5 (Level 5: growth control rate is above 85%)

test system: Digitaria sanguinalis; test: Weeding effect in post-emergence stage; format: in vivo; conditions: Dose 15 g/ha; fresh weight control rate level
In short: as §1

Compound	Weeding effect in post-emergence stage, Digitaria sanguinalis (level)
COC(=O)[C@@H](C)O/N=C/c1cc(-n2c(=S)cc(C(F)(F)F)n(C)c2=O)c(F)cc1Br [388(R)]	5 (Level 5: growth control rate is above 85%)
COC(=O)[C@@H](C)O/N=C/c1cc(-n2c(=S)cc(C(F)(F)F)n(C)c2=S)c(F)cc1C#N [390(R)]	5 (Level 5: growth control rate is above 85%)

same assay, conditions: Dose 15 g/ha; level of fresh weight growth control rate

Compound	Weeding effect in post-emergence stage, Digitaria sanguinalis
CCOC(=O)[C@@H](F)O/N=C/c1cc(-n2c(=O)cc(C(F)(F)F)n(C)c2=O)c(F)cc1Cl [313(R)]	5 (Level 5: growth control rate is above 85%)
CCC[C@@H](O/N=C/c1cc(-n2c(=O)cc(C(F)(F)F)n(C)c2=O)c(F)cc1Cl)C(=O)OC [316(R)]	5 (Level 5: growth control rate is above 85%)
COC(=O)[C@H](O/N=C/c1cc(-n2c(=O)cc(C(F)(F)F)n(C)c2=O)c(F)cc1Cl)C(C)C [318(R)]	5 (Level 5: growth control rate is above 85%)
CCO[C@H](O/N=C/c1cc(-n2c(=O)cc(C(F)(F)F)n(C)c2=O)c(F)cc1Cl)C(=O)OC [331(R)]	5 (Level 5: growth control rate is above 85%)
COC(=O)[C@H](O/N=C/c1cc(-n2c(=O)cc(C(F)(F)F)n(C)c2=O)c(F)cc1Cl)c1ccccc1 [337(R)]	5 (Level 5: growth control rate is above 85%)

test system: Eleusine indica; test: Weeding effect in post-emergence stage; format: in vivo; conditions: Dose 15 g/ha; fresh weight control rate level
In short: as §1

Compound	Weeding effect in post-emergence stage, Eleusine indica (level)
COC(=O)[C@@H](C)O/N=C/c1cc(-n2c(=S)cc(C(F)(F)F)n(C)c2=O)c(F)cc1Br [388(R)]	5 (Level 5: growth control rate is above 85%)
COC(=O)[C@@H](C)O/N=C/c1cc(-n2c(=S)cc(C(F)(F)F)n(C)c2=S)c(F)cc1C#N [390(R)]	5 (Level 5: growth control rate is above 85%)

same assay, conditions: Dose 15 g/ha; level of fresh weight growth control rate

Compound	Weeding effect in post-emergence stage, Eleusine indica
CCOC(=O)[C@@H](F)O/N=C/c1cc(-n2c(=O)cc(C(F)(F)F)n(C)c2=O)c(F)cc1Cl [313(R)]	5 (Level 5: growth control rate is above 85%)
CCC[C@@H](O/N=C/c1cc(-n2c(=O)cc(C(F)(F)F)n(C)c2=O)c(F)cc1Cl)C(=O)OC [316(R)]	5 (Level 5: growth control rate is above 85%)
COC(=O)[C@H](O/N=C/c1cc(-n2c(=O)cc(C(F)(F)F)n(C)c2=O)c(F)cc1Cl)C(C)C [318(R)]	5 (Level 5: growth control rate is above 85%)
CCO[C@H](O/N=C/c1cc(-n2c(=O)cc(C(F)(F)F)n(C)c2=O)c(F)cc1Cl)C(=O)OC [331(R)]	5 (Level 5: growth control rate is above 85%)
COC(=O)[C@H](O/N=C/c1cc(-n2c(=O)cc(C(F)(F)F)n(C)c2=O)c(F)cc1Cl)c1ccccc1 [337(R)]	5 (Level 5: growth control rate is above 85%)

test system: Setaria viridis; test: Weeding effect in post-emergence stage; format: in vivo; conditions: Dose 15 g/ha; fresh weight control rate level
In short: as §1

Compound	Weeding effect in post-emergence stage, Setaria viridis (level)
COC(=O)[C@@H](C)O/N=C/c1cc(-n2c(=S)cc(C(F)(F)F)n(C)c2=O)c(F)cc1Br [388(R)]	5 (Level 5: growth control rate is above 85%)
COC(=O)[C@@H](C)O/N=C/c1cc(-n2c(=S)cc(C(F)(F)F)n(C)c2=S)c(F)cc1C#N [390(R)]	5 (Level 5: growth control rate is above 85%)

same assay, conditions: Dose 15 g/ha; level of fresh weight growth control rate

Compound	Weeding effect in post-emergence stage, Setaria viridis
CCOC(=O)[C@@H](F)O/N=C/c1cc(-n2c(=O)cc(C(F)(F)F)n(C)c2=O)c(F)cc1Cl [313(R)]	5 (Level 5: growth control rate is above 85%)
CCC[C@@H](O/N=C/c1cc(-n2c(=O)cc(C(F)(F)F)n(C)c2=O)c(F)cc1Cl)C(=O)OC [316(R)]	5 (Level 5: growth control rate is above 85%)
COC(=O)[C@H](O/N=C/c1cc(-n2c(=O)cc(C(F)(F)F)n(C)c2=O)c(F)cc1Cl)C(C)C [318(R)]	5 (Level 5: growth control rate is above 85%)
CCO[C@H](O/N=C/c1cc(-n2c(=O)cc(C(F)(F)F)n(C)c2=O)c(F)cc1Cl)C(=O)OC [331(R)]	5 (Level 5: growth control rate is above 85%)
COC(=O)[C@H](O/N=C/c1cc(-n2c(=O)cc(C(F)(F)F)n(C)c2=O)c(F)cc1Cl)c1ccccc1 [337(R)]	5 (Level 5: growth control rate is above 85%)

test system: Echinochloa crusgalli; test: Weeding effect in post-emergence stage; format: in vivo; conditions: Dose 15 g/ha; fresh weight control rate level
In short: as §1

Compound	Weeding effect in post-emergence stage, Echinochloa crusgalli (level)
COC(=O)[C@@H](C)O/N=C/c1cc(-n2c(=S)cc(C(F)(F)F)n(C)c2=O)c(F)cc1Br [388(R)]	5 (Level 5: growth control rate is above 85%)
COC(=O)[C@@H](C)O/N=C/c1cc(-n2c(=S)cc(C(F)(F)F)n(C)c2=S)c(F)cc1C#N [390(R)]	5 (Level 5: growth control rate is above 85%)

same assay, conditions: Dose 15 g/ha; level of fresh weight growth control rate

Compound	Weeding effect in post-emergence stage, Echinochloa crusgalli
CCOC(=O)[C@@H](F)O/N=C/c1cc(-n2c(=O)cc(C(F)(F)F)n(C)c2=O)c(F)cc1Cl [313(R)]	5 (Level 5: growth control rate is above 85%)
CCC[C@@H](O/N=C/c1cc(-n2c(=O)cc(C(F)(F)F)n(C)c2=O)c(F)cc1Cl)C(=O)OC [316(R)]	5 (Level 5: growth control rate is above 85%)
COC(=O)[C@H](O/N=C/c1cc(-n2c(=O)cc(C(F)(F)F)n(C)c2=O)c(F)cc1Cl)C(C)C [318(R)]	5 (Level 5: growth control rate is above 85%)
CCO[C@H](O/N=C/c1cc(-n2c(=O)cc(C(F)(F)F)n(C)c2=O)c(F)cc1Cl)C(=O)OC [331(R)]	5 (Level 5: growth control rate is above 85%)
COC(=O)[C@H](O/N=C/c1cc(-n2c(=O)cc(C(F)(F)F)n(C)c2=O)c(F)cc1Cl)c1ccccc1 [337(R)]	5 (Level 5: growth control rate is above 85%)

— patent US20230111310A1, “CARBOXYLIC ACID DERIVATIVE-SUBSTITUTED IMINO ARYL COMPOUND, PREPARATION METHOD THEREFOR, HERBICIDAL COMPOSITION AND USE THEREOF” (Qingdao Kingagroot Chemical Compound Co., Ltd., priority 2020, published 2023)
